Literature values, collected in patent publication US5434330A, “Process and apparatus for separation of constituents of gases using gas hydrates” (priority 1993, dated 1995).
Read-outs that look alike come from different tables or passages of the source.

Tests used:
[1] = for calculation at 253K
[2] = in ethyl ether, 20° C.
[3] = 25° C.

Structure (SMILES) | methane-methanol Henry's law constant ([1]; in methanol) [atm] | methane-water Henry's law constant ([1]; in water) | Ostwald coefficient [2] | SOLUBILITY OF METHANE, HENRY'S CONSTANT H ([3]; in Acetone) [atm] | SOLUBILITY OF METHANE, HENRY'S CONSTANT H ([3]; in Ethanol) [atm] | SOLUBILITY OF METHANE, HENRY'S CONSTANT H ([3]; in Methanol) [atm] | SOLUBILITY OF METHANE, HENRY'S CONSTANT H ([3]; in Water) | nitrogen-methanol Henry's law constant ([1]; in methanol) | nitrogen-water Henry's law constant ([1]; in water)
C [methane] | 824 | 10,193 atm | 1028 | 533 | 770 | 1137 | 39,052 atm |  | 
N#N [nitrogen] |  |  |  |  |  |  |  | 3,632 atm | 27,987 atm
